{
  "source": "patent US20250026796A1",
  "about": "(priority 2022, published 2025)",
  "molecular_target": "SARS-CoV-2 E (2E) (Severe acute respiratory syndrome coronavirus 2, UniProt P0DTC4)",
  "sequence (P0DTC4 whole entry, looked up)": "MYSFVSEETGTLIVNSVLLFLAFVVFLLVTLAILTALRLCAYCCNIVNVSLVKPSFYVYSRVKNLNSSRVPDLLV",
  "format": "cell-based",
  "data": [
    {"sequence": "MYSFVSEETGTLIVNSVL [MY18]", "values": [
      {"measurement": "Relative fluorescent intensity of DND-189 dye (proton homeostasis)", "result": "significantly restores the proton homeostasis"}
    ]}
  ]
}
